Experimental data as given in article PMC9564503, “Anabaenopeptins from Nostoc edaphicum CCNP1411” (International Journal of Environmental Research and Public …, 2022).
Numbered stars: 1 amine (or outer) side, 2 acyl side, 3 side chain; on linkers, the order of the positions; unused ones are H or OH. Bridge positions count the residues as written; N and C are the ends. Square brackets hold non-standard residues; d marks the D form. Peptide text beside a SMILES is read from it. hPhe = N[C@@H](CCc1ccccc1)C(=O)O; NMeN = CN[C@@H](CC(N)=O)C(=O)O; CO = O=C([*:1])[*:2]

What was measured:
CPA = system: CPA; set-up: method as in PMID 11000037, PMID 10340607, PMID 27641470; settings: ref [9],[23],[87]; read-out: IC50 against CPA; cited from earlier work
trypsin = assay: Trypsin inhibition assay; type: biochemical; settings: class symbol in IC50 column
Experimental: The tests were performed in triplicates.
Table S2. Conditions and solvents used in the enzyme inhibition assays.
Enzyme Substrate Inhibitor bation time (min) ngth
Carboxypeptidase-A N-(4-methoxy-phenyl- Carboxypeptidase
(Sigma-Aldrich; azoformyl)-Phe-OH inhibitor from 5 min;
1.6 µM Montclair, CA, USA) (Sigma-Aldrich)
Elastase N-succinyl-Ala-Ala-Ala-p- Elastatinal
(Sigma-Aldrich) nitroanilide (Sigma-Aldrich) 20 min;
Thrombin N-p-tosyl-Gly-Pro-Lys-p- AEBSF
(Sigma-Aldrich) nitroanilide acetate salt (Sigma-Aldrich) 10 min;
Trypsin N-α-benzoyl-DL-arginine- Aprotinine
(Sigma-Aldrich) p-nitroanilide (Sigma-Aldrich) 15 min;
Figure S2. MRM chromatograms of anabaenopeptins produced by N. edaphicum CCNP1411.

Tyr+CO[Lys+Ile+Hty+MeHty+Ile] [AP G]
IC50 (CPA): 2 nM

CC[C@H](C)[C@H](NC(=O)N[C@@H]1CCCCNC(=O)[C@H](Cc2ccccc2)NC(=O)[C@H](CC(N)=O)N(C)C(=O)[C@H](CCc2ccccc2)NC(=O)[C@H]([C@@H](C)CC)NC1=O)C(=O)O [AP SA6, [Lys–Leu*–Hph–MeAsn–Phe]CO–Leu*] ({Ile-CO}-[dK]I[hPhe][NMeN]F; lactam 1-C)
Enzyme Inhibition TRY (activity class) (trypsin): – (not active (inhibition below 10%))

CC[C@H](C)[C@@H]1NC(=O)[C@H](NC(=O)N[C@H](C(=O)O)C(C)C)CCCCNC(=O)[C@H](Cc2ccccc2)NC(=O)[C@H](CC(N)=O)NC(=O)[C@H](CCc2ccccc2)NC1=O [AP806Ne, [Lys–Leu*–Hph–Asn–Phe]CO–Val] ({Val-CO}-[dK]I[hPhe]NF; lactam 1-C)
Enzyme Inhibition TRY (activity class) (trypsin): – (not active (inhibition below 10%))
